Consider eight compounds from paper PMC6346239 (ChemistryOpen, 2019).

For test [1], the target named is T1, hAT2R (Homo sapiens, UniProt P50052).
T1 sequence (P50052 1-363): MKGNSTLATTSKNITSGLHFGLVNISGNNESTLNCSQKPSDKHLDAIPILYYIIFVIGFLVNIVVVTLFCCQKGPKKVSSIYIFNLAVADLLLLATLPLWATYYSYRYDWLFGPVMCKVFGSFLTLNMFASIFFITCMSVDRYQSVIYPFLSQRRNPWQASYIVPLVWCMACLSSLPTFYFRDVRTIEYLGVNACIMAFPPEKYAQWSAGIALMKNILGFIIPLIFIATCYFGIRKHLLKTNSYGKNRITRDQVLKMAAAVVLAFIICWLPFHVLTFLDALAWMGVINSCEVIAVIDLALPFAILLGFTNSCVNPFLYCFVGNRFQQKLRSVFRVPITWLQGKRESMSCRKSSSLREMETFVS
Format: binding.

Test [2] has as its target T2, hAT1R (Homo sapiens, UniProt P30556).
T2 sequence (P30556 1-359): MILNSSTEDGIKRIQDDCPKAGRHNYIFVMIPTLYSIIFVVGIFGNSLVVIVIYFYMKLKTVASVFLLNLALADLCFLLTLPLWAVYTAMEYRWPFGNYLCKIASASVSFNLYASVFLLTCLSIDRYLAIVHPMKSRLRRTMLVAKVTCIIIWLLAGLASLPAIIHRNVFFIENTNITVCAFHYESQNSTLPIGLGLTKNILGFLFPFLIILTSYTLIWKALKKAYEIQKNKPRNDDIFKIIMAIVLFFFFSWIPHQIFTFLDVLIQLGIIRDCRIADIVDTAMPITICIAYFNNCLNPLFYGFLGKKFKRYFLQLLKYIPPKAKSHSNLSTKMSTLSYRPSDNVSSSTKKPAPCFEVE
The class given is binding. The note with it: read-out: % Inhibition of hAT1R at 10 μM.

Test [3] deals with T1, hAT2R. In words: Assay 2: whole cell competition binding assay, HEK293 cells expressing AT2R.
Test [4] has as its target T2, hAT1R. In words: Assay 2: whole cell competition binding assay, HEK293 cells expressing AT1R.

SMILES strings stand for the structures. Like-named read-outs stand apart in the source and are kept apart here. A value given as a limit tells only on which side of the number the result lay.

One may read the Ki as the equilibrium dissociation constant of an inhibitor or competing ligand from its target. Higher therefore signals lower affinity. Broadly, the inhibition is the percentage by which the read-out fell short of the control. One may read the IC50 as the point on the concentration scale where inhibition reaches its midpoint.

In turn, `CCOC(=O)NS(=O)(=O)c1sc(CC(C)C)cc1-c1ccc2c(c1)CN(C(=O)OCC)C2` [Compound 89] displayed a Ki in test [1] of 1300 nM. The “drop in hAT2R affinity compared to compound 86” value in test [1] (versus 86) is on record as 20 fold. Besides, the “decrease in hAT2R affinity compared to methyl carbamate 92” value in test [1] (versus 92) is about 5 fold. For the same compound, in test [2], the inhibition at 10 µM worked out at 26%.

The compound `CCCCOC(=O)NS(=O)(=O)c1sc(CC(C)C)cc1-c1ccc2c(c1)CN(C(C)=O)CC2` [Compound 87] showed an inhibition constant (Ki) in test [1] of 270 nM. Further, in test [2], the inhibition at 10 µM amounted to 45%.

In the case of `CCCCOC(=O)NS(=O)(=O)c1sc(CC(C)C)cc1-c1ccc2c(c1)CN(C(C)=O)C2` [Compound 85], in test [1], the Ki was 360 nM. Moreover, the inhibition at 10 µM in test [2] stood at 7.5%.

For `CCCCOC(=O)NS(=O)(=O)c1sc(CC(C)C)cc1-c1cccc2c1CN(C(C)=O)C2` [Compound 83], in test [1], the IC50 was over 3000 nM and the inhibitory constant (Ki) was over 1500 nM. The inhibition at 10 µM in test [2] is 15%.

Take `CCOC(=O)NS(=O)(=O)c1sc(CC(C)C)cc1-c1ccc2c(c1)CN(C(C)=O)C2` [Compound 88]: the inhibition constant Ki in test [1] was 870 nM. Moreover, the inhibition at 10 µM in test [2] was found to be 7.7%.

As for `CCCCOC(=O)NS(=O)(=O)c1sc(CC(C)C)cc1-c1ccc(OC(F)(F)F)c(Cn2ccnc2)c1` [Compound 47], the inhibition at 10 µM in test [2] was 1.8%.

On to `CCCCOC(=O)NS(=O)(=O)c1sc(CC(C)C)cc1-c1ccc2c(c1)CCN(C(C)=O)C2` [Compound 86, Butyl ((3‐(2‐acetyl‐1,2,3,4‐tetrahydroisoquinolin‐6‐yl)‐5‐isobutylthiophen‐2‐yl)sulfonyl)carbamate], for which the affinity in test [1], expressed as Ki, was 56 nM. Also, in test [1] (versus C38), the “improvement of hAT2R affinity compared to C38” value came out at 5 fold. The “improvement of hAT2R affinity compared to amides C93 and C97” value in test [1] (versus C93 and C97) came out at 2 fold. Also, the inhibition at 10 µM in test [2] came to 34%. In addition, the results for the IC50 in test [3] and in test [4] were 818 nM and over 10000 nM, respectively.

`CCOC(=O)NS(=O)(=O)c1sc(CC(C)C)cc1-c1ccc2c(c1)CN(C)C(=O)C2` [Compound 94]: in test [1], the inhibitory constant (Ki) was determined as 1300 nM. Further, the inhibition at 10 µM in test [2] stood at 1.5%.
